According to US12617770B2, “IRAK inhibitor and preparation method therefor and use thereof” (WUHAN CREATERNA SCIENCE AND TECHNOLOGY CO., LTD., priority 2019, dated 2026):

biological target: T1, human IRAK4 (Homo sapiens, UniProt Q9NWZ3); test: IRAK4 MSA (Mobility-Shift Assay) at Km concentration of ATP; assay type: biochemical; conditions: GST-IRAK4 1 nM, ATP 37 μM (Km); read-out: IC50 for inhibiting human IRAK4 activity
T1 construct: purchased Cama (so in the source)
T1 sequence (Q9NWZ3 1-460): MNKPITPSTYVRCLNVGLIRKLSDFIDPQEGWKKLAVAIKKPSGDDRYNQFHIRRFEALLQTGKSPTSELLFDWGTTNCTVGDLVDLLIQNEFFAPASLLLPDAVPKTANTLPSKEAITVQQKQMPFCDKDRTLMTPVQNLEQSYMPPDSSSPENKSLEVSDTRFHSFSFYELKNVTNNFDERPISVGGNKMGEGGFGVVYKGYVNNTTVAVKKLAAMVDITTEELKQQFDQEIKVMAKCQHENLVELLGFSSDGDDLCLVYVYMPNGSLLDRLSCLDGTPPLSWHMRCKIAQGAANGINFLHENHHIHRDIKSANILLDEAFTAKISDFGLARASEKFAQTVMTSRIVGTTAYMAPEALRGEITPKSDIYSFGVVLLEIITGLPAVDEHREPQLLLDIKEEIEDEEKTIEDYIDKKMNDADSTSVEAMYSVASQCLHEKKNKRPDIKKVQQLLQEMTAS
Method: A recombinant fusion protein of N-terminal GST (glutathione-S-transferase) and human IRAK4 was used as enzyme (GST-IRAK4, kinase IRAK4 (Cama, CAT No. 09-145)) at a final concentration of 1 nM; ATP (Sigma. CAT No. A7699-1G) was at a final concentration of 37 μM; • the substrates used for the kinase reaction were 5-FAM (5-carboxyfluorescein)-labeled polypeptide (5-FAM-[…]-COOH) and substrate peptide FAM-P8 (GL Biochem, CAT No. 112396) at final concentrations of 5 μM.
In this assay, 500 μM stock solutions of the compounds were prepared in 100% DMSO, and serially 4-fold diluted to the 10th concentration gradient with 100% DMSO, followed by a 10-fold dilution in the compound buffer (50 mM HEPES, pH 7.5, 0.00015% Brij-35) to give intermediate dilutions of the compounds at a final concentration of 10 μM−0.04 nM containing 10% DMSO. 5 μL of the intermediate dilution was transferred into a black 384-well plate.
IRAK4 was diluted to 2.5 nM in the kinase buffer (50 mM HEPES, pH 7.5, 0.00015% Brij-35, 2 mM DTT). 10 μL of the IRAK4 dilution was transferred to the 384-well plate and co-incubated with the compound for 10-15 min.
The substrate and ATP were diluted to 12.5 μM and 92.5 μM with reaction buffer (50 mM HEPES, pH 7.5, 0.00015% Brij-35, 10 mM MgCl2), respectively. 10 μL of the dilution was transferred to a 384-well plate and incubated at 28° C. for 1 h. The reaction was terminated by adding 25 μL of 50 mM EDTA to the 384-well plate.
The inhibition rate of IRAK4 by the compounds was calculated by measuring the rate of phosphorylated substrate using a Caliper EZ Reader (PerkinElmer) and the IC50 was calculated by XL-fit software. […] In particular, some exemplary compound activity values are as follows: […]

| SMILES | IC50 |
| --- | --- |
| COc1cc2nn([C@H]3CC[C@@](O)(CC#N)CC3)cc2cc1NC(=O)c1cccc(C2CC2)[n+]1[O-] [Compound 176, 2-((2-((1r,4r)-4-(cyanomethyl)-4-hydroxycyclohexyl)-6-methoxy-2H-indazol-5-yl)carbamoyl)-6-cyclopropylpyridine 1-oxide] | 0.0043 µM |
| COc1cc2nn(C3CCCCC3)cc2cc1NC(=O)c1cccc(C)[n+]1[O-] [Compound 285, 2-((2-cyclohexyl-6-methoxy-2H-indazol-5-yl)carbamoyl)-6-methylpyridine 1-oxide] | 0.0059 µM |
| COc1cc2nn([C@H]3CC[C@](C)(C#N)CC3)cc2cc1NC(=O)c1cccc(C)[n+]1[O-] [Compound 291, 2-((2-((1r,4r)-4-cyano-4-methylcyclohexyl)-6-methoxy-2H-indazol-5-yl)carbamoyl)-6-methylpyridine 1-oxide] | 0.014 µM |
| Cc1cccc(C(=O)Nc2cc3cn([C@H]4CC[C@H](O)CC4)nc3cc2OCC2CC2)[n+]1[O-] [Compound 019, 2-((6-(cyclopropylmethoxy)-2-((1r,4r)-4-hydroxycyclohexyl)-2H-indazol-5-yl)carbamoyl)-6-methylpyridine 1-oxide] | 0.0081 µM |
| COc1cc2nn([C@H]3CC[C@@H](O)CC3)cc2cc1NC(=O)c1cccc(C2CC2)[n+]1[O-] [Compound 218, 2-cyclopropyl-6-((2-((1s,4s)-4-hydroxycyclohexyl)-6-methoxy-2H-indazol-5-yl)carbamoyl)pyridine 1-oxide] | 0.0083 µM |
| COc1cc2nn([C@H]3CC[C@](C)(O)CC3)cc2cc1NC(=O)c1cccc(NC2CC2)[n+]1[O-] [Compound 289, 2-(cyclopropylamino)-6-((2-((1r,4r)-4-hydroxy-4-methylcyclohexyl)-6-methoxy-2H-indazol-5-yl)carbamoyl)pyridine 1-oxide] | 0.0017 µM |
| COc1cc2nn([C@H]3CC[C@H](O)CC3)cc2cc1NC(=O)c1cccc(C(C)C)[n+]1[O-] [Compound 015, 2-((2-((1r,4r)-4-hydroxycyclohexyl)-6-methoxy-2H-indazol-5-yl)carbamoyl)-6-isopropylpyridine 1-oxide] | 0.0054 µM |
| CCOc1cc2nn([C@H]3CC[C@@H](O)CC3)cc2cc1NC(=O)c1cccc(C)[n+]1[O-] [Compound 220, 2-((6-ethoxy-2-((1s,4s)-4-hydroxycyclohexyl)-2H-indazol-5-yl)carbamoyl)-6-methylpyridine 1-oxide] | 0.014 µM |
| C#C[C@]1(O)CC[C@H](n2cc3cc(NC(=O)c4cccc(C)[n+]4[O-])c(OC)cc3n2)CC1 [Compound 187, 2-((2-((1r,4r)-4-ethynyl-4-hydroxycyclohexyl)-6-methoxy-2H-indazol-5-yl)carbamoyl)-6-methylpyridine 1-oxide] | 0.0092 µM |
| COc1cc2nn(C3CCC(F)(F)CC3)cc2cc1NC(=O)c1cccc(C)[n+]1[O-] [Compound 286, 2-((2-(4,4-difluorocyclohexyl)-6-methoxy-2H-indazol-5-yl)carbamoyl)-6-methylpyridine 1-oxide] | 0.014 µM |
| Cc1cccc(C(=O)Nc2cc3cn([C@H]4CC[C@@H](O)CC4)nc3cc2OCC2CC2)[n+]1[O-] [Compound 292, 2-((6-(cyclopropylmethoxy)-2-((1s,4s)-4-hydroxycyclohexyl)-2H-indazol-5-yl)carbamoyl)-6-methylpyridine 1-oxide] | 0.014 µM |
| COc1cc2nn([C@H]3CC[C@](C)(O)CC3)cc2cc1NC(=O)c1cccc(C2CC2)[n+]1[O-] [Compound 002, 2-cyclopropyl-6-((2-((1r,4r)-4-hydroxy-4-methylcyclohexyl)-6-methoxy-2H-indazol-5-yl)carbamoyl) Pyridine 1-oxide] | 0.0037 µM |
| COc1cc2nn([C@H]3CC[C@@](O)(CC#N)CC3)cc2cc1NC(=O)c1cccc(C)[n+]1[O-] [Compound 175, 2-((2-((1r,4r)-4-(cyanomethyl)-4-hydroxycyclohexyl)-6-methoxy-2H-indazol-5-yl)carbamoyl)-6-methylpyridine 1-oxide] | 0.0071 µM |
| COc1cc2nn([C@H]3CC[C@@](O)(C4CC4)CC3)cc2cc1NC(=O)c1cccc(C)[n+]1[O-] [Compound 025, 2-((2-((1r,4r)-4-cyclopropyl-4-hydroxycyclohexyl)-6-methoxy-2H-indazol-5-yl)carbamoyl)-6-methylpyridine 1-oxide] | 0.013 µM |
| COc1cc2nn([C@H]3CC[C@](C)(O)CC3)cc2cc1NC(=O)c1cccc(C)n1 [Compound B, N-(2-((1r,4r)-4-hydroxy-4-methylcyclohexyl)-6-methoxy-2H-indazol-5-yl)-6-methylpicolinamide, reference compound] | 0.03 µM |
| COc1cc2nn([C@H]3CC[C@@H](O)CC3)cc2cc1NC(=O)c1cccc(C(C)C)[n+]1[O-] [Compound 288, 2-((2-((1s,4s)-4-hydroxycyclohexyl)-6-methoxy-2H-indazol-5-yl)carbamoyl)-6-isopropylpyridine 1-oxide] | 0.013 µM |
| Cc1cccc(C(=O)Nc2cc3cn([C@H]4CC[C@@](C)(O)CC4)nc3cc2N(C)C)[n+]1[O-] [Compound 287, 2-((6-(dimethylamino)-2-((1s,4s)-4-hydroxy-4-methylcyclohexyl)-2H-indazol-5-yl)carbamoyl)-6-methylpyridine 1-oxide] | 0.013 µM |
| COc1cc2nn(C3CCCC3)cc2cc1NC(=O)c1cccc(C)[n+]1[O-] [Compound 284, 2-((2-cyclopentyl-6-methoxy-2H-indazol-5-yl)carbamoyl)-6-methylpyridine 1-oxide] | 0.028 µM |
| Cc1cccc(C(=O)Nc2cc3cn([C@H]4CC[C@](C)(O)CC4)nc3cc2N(C)C)[n+]1[O-] [Compound 010, 2-((6-(dimethylamino)-2-((1r,4r)-4-hydroxy-4-methylcyclohexyl)-2H-indazol-5-yl)carbamoyl)-6-methylpyridine 1-oxide] | 0.011 µM |
